Measured values from patent US7884136B2, “Modified-release formulations of a bupropion salt” (Biovail Laboratories International S.R.L., priority 2005, dated 2011).

Assay: Shelf life stability program of bupropion HBr, 25° C./60% RH, 3 and 6 months, HPLC
Assay type: physicochemical
Conditions: 25° C., R.H. 60%; for Chromatographic purity B) (HPLC) 4) 2-N-(tert-Butyl)-aminopropiophenone / Chromatographic purity B) (HPLC) 5) single unknown impurity (each): LOQ 0.02%, LOD 0.002%; for Chromatographic purity A) (HPLC) 1) 3′-Chloropropiophenone / Chromatographic purity A) (HPLC) 3) 3′-Chlorobenzoic acid / Chromatographic purity A) (HPLC) 2) 3′-Chloro-2-bromopropiophenone: LOQ 0.05%; for Chromatographic purity A) (HPLC) 1) 3′-Chloropropiophenone / Chromatographic purity A) (HPLC) 3) 3′-Chlorobenzoic acid: LOD 0.01%; for Chromatographic purity A) (HPLC) 2) 3′-Chloro-2-bromopropiophenone: LOD 0.04%
Description: The stability of bupropion HBr was studied over a longer term under conditions meant to approximate standard storage or shelf conditions. Samples were prepared in closed containers and subjected to long-term storage at 25° C.+2° C. and 60%+5% RH in a stability chamber. The samples were analyzed by HPLC prior to being placed in the stability chamber (time 0) and after 3 months and 6 months. The amounts of the main degradation products present at time 0 were compared with the amounts present at 3 months and 6 months. As shown in Table 77-79 three different batches of bupropion HBr were tested. As in Example 10 each sample was tested under two HPLC assay conditions to identify 6 impurities or groups of impurities as described in Example 10.

## Br.CC(NC(C)(C)C)C(=O)c1cccc(Cl)c1 (stereo not drawn) [Bupropion•HBr]
Batch D00895, 6 months
  Assay (HPLC): 100.1 % on d.b.
  Chromatographic purity (HPLC: A + B) Total impurities: 0.1%
  Chromatographic purity B) (HPLC) 6) total unknown impurities: 6) 0.02%
  Description (white or almost white crystalline powder): conform
  Identification IR, HPLC: positive
  Water content (K.F.): 0.05%
  Chromatographic purity B) (HPLC) 4) 2-N-(tert-Butyl)-aminopropiophenone: 4) 0.05%
  Chromatographic purity B) (HPLC) 5) single unknown impurity (each): 5) n.q.
  Chromatographic purity A) (HPLC) 1) 3′-Chloropropiophenone: 1) 0.05%
  Chromatographic purity A) (HPLC) 3) 3′-Chlorobenzoic acid: 3) n.q.
  Chromatographic purity A) (HPLC) 2) 3′-Chloro-2-bromopropiophenone: 2) n.d.
Batch D00895, 9 months
  Assay (HPLC): 99.4 % on d.b.
  Chromatographic purity (HPLC: A + B) Total impurities: n.q.
  Chromatographic purity B) (HPLC) 6) total unknown impurities: 6) n.q.
  Description (white or almost white crystalline powder): conform
  Identification IR, HPLC: positive
  Water content (K.F.): 0.05%
  Chromatographic purity B) (HPLC) 4) 2-N-(tert-Butyl)-aminopropiophenone: 4) n.d.
  Chromatographic purity B) (HPLC) 5) single unknown impurity (each): 5) n.q.
  Chromatographic purity A) (HPLC) 1) 3′-Chloropropiophenone: 1) n.q.
  Chromatographic purity A) (HPLC) 3) 3′-Chlorobenzoic acid: 3) n.q.
  Chromatographic purity A) (HPLC) 2) 3′-Chloro-2-bromopropiophenone: 2) n.d.
Batch D00895, 12 months
  Assay (HPLC): 99.4 % on d.b.
  Chromatographic purity (HPLC: A + B) Total impurities: 0.2%
  Chromatographic purity B) (HPLC) 6) total unknown impurities: 6) 0.07%
  Description (white or almost white crystalline powder): conform
  Identification IR, HPLC: positive
  Water content (K.F.): 0.04%
  Chromatographic purity B) (HPLC) 4) 2-N-(tert-Butyl)-aminopropiophenone: 4) 0.05%
  Chromatographic purity B) (HPLC) 5) single unknown impurity (each): 5) 0.07%
  Chromatographic purity A) (HPLC) 1) 3′-Chloropropiophenone: 1) n.d.
  Chromatographic purity A) (HPLC) 3) 3′-Chlorobenzoic acid: 3) 0.05%
  Chromatographic purity A) (HPLC) 2) 3′-Chloro-2-bromopropiophenone: 2) n.d.
Batch D00895, time 0
  Assay (HPLC): 99.2 % on d.b.
  Chromatographic purity (HPLC: A + B) Total impurities: 0.1%
  Chromatographic purity B) (HPLC) 6) total unknown impurities: 6) 0.04%
  Description (white or almost white crystalline powder): conform
  Identification IR, HPLC: positive
  Water content (K.F.): 0.04%
  Chromatographic purity B) (HPLC) 4) 2-N-(tert-Butyl)-aminopropiophenone: 4) 0.04%
  Chromatographic purity B) (HPLC) 5) single unknown impurity (each): 5) 0.04%
  Chromatographic purity A) (HPLC) 1) 3′-Chloropropiophenone: 1) n.d.
  Chromatographic purity A) (HPLC) 3) 3′-Chlorobenzoic acid: 3) n.q.
  Chromatographic purity A) (HPLC) 2) 3′-Chloro-2-bromopropiophenone: 2) n.d.
Batch D00896, 3 months
  Assay (HPLC): 99.4 % on d.b.
  Chromatographic purity (HPLC: A + B) Total impurities: 0.1%
  Chromatographic purity B) (HPLC) 6) total unknown impurities: 6) 0.05%
  Description (white or almost white crystalline powder): conform
  Identification IR, HPLC: positive
  Water content (K.F.): 0.04%
  Chromatographic purity B) (HPLC) 4) 2-N-(tert-Butyl)-aminopropiophenone: 4) 0.03%
  Chromatographic purity B) (HPLC) 5) single unknown impurity (each): 5) 0.04%
  Chromatographic purity A) (HPLC) 1) 3′-Chloropropiophenone: 1) n.q.
  Chromatographic purity A) (HPLC) 3) 3′-Chlorobenzoic acid: 3) n.q.
  Chromatographic purity A) (HPLC) 2) 3′-Chloro-2-bromopropiophenone: 2) n.d.
Batch D00896, 6 months
  Assay (HPLC): 100.5 % on d.b.
  Chromatographic purity (HPLC: A + B) Total impurities: 0.1%
  Chromatographic purity B) (HPLC) 6) total unknown impurities: 6) n.q.
  Description (white or almost white crystalline powder): conform
  Identification IR, HPLC: positive
  Water content (K.F.): 0.04%
  Chromatographic purity B) (HPLC) 4) 2-N-(tert-Butyl)-aminopropiophenone: 4) 0.04%
  Chromatographic purity B) (HPLC) 5) single unknown impurity (each): 5) n.q.
  Chromatographic purity A) (HPLC) 1) 3′-Chloropropiophenone: 1) 0.05%
  Chromatographic purity A) (HPLC) 3) 3′-Chlorobenzoic acid: 3) n.q.
  Chromatographic purity A) (HPLC) 2) 3′-Chloro-2-bromopropiophenone: 2) n.d.
